In US20080090734A1, “DRUG SCREENING AND TARGET IDENTIFICATION USING SPR IMAGING OF TARGET PROTEIN ARRAYS” (The Trustees of California State University, priority 2006, published 2008):

What was measured:
[1] = system: A. baumannii clinical isolate LAC 03; assay: Antibiotic susceptibility profile; assay type: cell-based, Acinetobacter baumannii; design: key: Resistance; Intermediate; Susceptible
Procedure, shortened: (§1)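 Strains were obtained from nosocomial cases in Los Angeles and New York City. Testing used just those antibiotics for which A. baumannii interpretive breakpoints exist, and each drug–strain pair was interpreted as susceptible, intermediate or resistant.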

[2] = system: A. baumannii clinical isolate LAC 10; assay: Antibiotic susceptibility profile; assay type: cell-based, Acinetobacter baumannii; design: key: Resistance; Intermediate; Susceptible
Procedure, shortened: as §1

[3] = system: A. baumannii clinical isolate LAC 13; assay: Antibiotic susceptibility profile; assay type: cell-based, Acinetobacter baumannii; design: key: Resistance; Intermediate; Susceptible
Procedure, shortened: as §1

[4] = system: A. baumannii clinical isolate LAC 04; assay: Antibiotic susceptibility profile; assay type: cell-based, Acinetobacter baumannii; design: key: Resistance; Intermediate; Susceptible
Procedure, shortened: as §1

[5] = system: A. baumannii clinical isolate LAC 09; assay: Antibiotic susceptibility profile; assay type: cell-based, Acinetobacter baumannii; design: key: Resistance; Intermediate; Susceptible
Procedure, shortened: as §1

[6] = system: A. baumannii clinical isolate NY C; assay: Antibiotic susceptibility profile; assay type: cell-based, Acinetobacter baumannii; design: key: Resistance; Intermediate; Susceptible
Procedure, shortened: as §1

[7] = system: A. baumannii reference strain 17978; assay: Antibiotic susceptibility profile; assay type: cell-based, Acinetobacter baumannii; design: key: Resistance; Intermediate; Susceptible; settings: strain 17978 (ATCC)
Procedure, shortened: (§2)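 Clinical isolates came from nosocomial infections in New York City and Los Angeles and were tested only against antibiotics with established A. baumannii breakpoints. Each result was categorised as resistant (R), intermediate (I) or susceptible (S).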

[8] = system: A. baumannii clinical isolate NY F; assay: Antibiotic susceptibility profile; assay type: cell-based, Acinetobacter baumannii; design: key: Resistance; Intermediate; Susceptible
Procedure, shortened: as §1

[9] = system: A. baumannii reference strain 19606; assay: Antibiotic susceptibility profile; assay type: cell-based, Acinetobacter baumannii; design: key: Resistance; Intermediate; Susceptible; settings: strain 19606 (ATCC)
Procedure, shortened: as §2

[10] = system: A. baumannii clinical isolate LAC 12; assay: Antibiotic susceptibility profile; assay type: cell-based, Acinetobacter baumannii; design: key: Resistance; Intermediate; Susceptible
Procedure, shortened: as §1

[11] = system: A. baumannii clinical isolate NY D; assay: Antibiotic susceptibility profile; assay type: cell-based, Acinetobacter baumannii; design: key: Resistance; Intermediate; Susceptible
Procedure, shortened: as §1

[12] = system: A. baumannii clinical isolate NY G; assay: Antibiotic susceptibility profile; assay type: cell-based, Acinetobacter baumannii; design: key: Resistance; Intermediate; Susceptible
Procedure, shortened: as §1

[13] = system: A. baumannii clinical isolate NY A; assay: Antibiotic susceptibility profile; assay type: cell-based, Acinetobacter baumannii; design: key: Resistance; Intermediate; Susceptible
Procedure, shortened: as §1

[14] = system: A. baumannii clinical isolate LAC 19; assay: Antibiotic susceptibility profile; assay type: cell-based, Acinetobacter baumannii; design: key: Resistance; Intermediate; Susceptible
Procedure, shortened: as §1

[15] = system: A. baumannii reference strain 15839; assay: Antibiotic susceptibility profile; assay type: cell-based, Acinetobacter baumannii; design: key: Resistance; Intermediate; Susceptible; settings: strain 15839 (ATCC)
Procedure, shortened: as §2

[16] = system: A. baumannii clinical isolate LAC 16; assay: Antibiotic susceptibility profile; assay type: cell-based, Acinetobacter baumannii; design: key: Resistance; Intermediate; Susceptible
Procedure, shortened: as §1

[17] = system: A. baumannii clinical isolate NY E; assay: Antibiotic susceptibility profile; assay type: cell-based, Acinetobacter baumannii; design: key: Resistance; Intermediate; Susceptible
Procedure, shortened: as §1

[18] = system: A. baumannii clinical isolate LAC 15; assay: Antibiotic susceptibility profile; assay type: cell-based, Acinetobacter baumannii; design: key: Resistance; Intermediate; Susceptible
Procedure, shortened: as §1

[19] = system: A. baumannii clinical isolate LAC 01; assay: Antibiotic susceptibility profile; assay type: cell-based, Acinetobacter baumannii; design: key: Resistance; Intermediate; Susceptible
Procedure, shortened: as §1

[20] = system: A. baumannii reference strain AYE; assay: Antibiotic susceptibility profile; assay type: cell-based, Acinetobacter baumannii; design: key: Resistance; Intermediate; Susceptible
Procedure, shortened: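 Clinical isolates from nosocomial infections in New York City and Los Angeles, tested alongside reference strains against only antibiotics having A. baumannii breakpoints; each scored R (resistant), I (intermediate) or S (susceptible).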

[21] = system: A. baumannii clinical isolate NY B; assay: Antibiotic susceptibility profile; assay type: cell-based, Acinetobacter baumannii; design: key: Resistance; Intermediate; Susceptible
Procedure, shortened: as §1

[22] = system: A. baumannii clinical isolate NY H; assay: Antibiotic susceptibility profile; assay type: cell-based, Acinetobacter baumannii; design: key: Resistance; Intermediate; Susceptible
Procedure, shortened: as §1

[23] = system: A. baumannii clinical isolate LAC 05; assay: Antibiotic susceptibility profile; assay type: cell-based, Acinetobacter baumannii; design: key: Resistance; Intermediate; Susceptible
Procedure, shortened: as §1

[24] = system: A. baumannii clinical isolate LAC 07; assay: Antibiotic susceptibility profile; assay type: cell-based, Acinetobacter baumannii; design: key: Resistance; Intermediate; Susceptible
Procedure, shortened: as §1

[25] = system: A. baumannii reference strain SDF; assay: Antibiotic susceptibility profile; assay type: cell-based, Acinetobacter baumannii; design: key: Resistance; Intermediate; Susceptible
Procedure, shortened: as §2

[26] = system: A. baumannii clinical isolate LAC 06; assay: Antibiotic susceptibility profile; assay type: cell-based, Acinetobacter baumannii; design: key: Resistance; Intermediate; Susceptible
Procedure, shortened: as §1

[27] = system: A. baumannii clinical isolate LAC 20; assay: Antibiotic susceptibility profile; assay type: cell-based, Acinetobacter baumannii; design: key: Resistance; Intermediate; Susceptible
Procedure, shortened: as §1

[28] = system: A. baumannii clinical isolate LAC 18; assay: Antibiotic susceptibility profile; assay type: cell-based, Acinetobacter baumannii; design: key: Resistance; Intermediate; Susceptible
Procedure, shortened: as §1

[29] = system: A. baumannii clinical isolate LAC 17; assay: Antibiotic susceptibility profile; assay type: cell-based, Acinetobacter baumannii; design: key: Resistance; Intermediate; Susceptible
Procedure, shortened: as §1

[30] = system: A. baumannii clinical isolate LAC 02; assay: Antibiotic susceptibility profile; assay type: cell-based, Acinetobacter baumannii; design: key: Resistance; Intermediate; Susceptible
Procedure, shortened: as §1

[31] = system: A. baumannii clinical isolate LAC 14; assay: Antibiotic susceptibility profile; assay type: cell-based, Acinetobacter baumannii; design: key: Resistance; Intermediate; Susceptible
Procedure, shortened: as §1

[32] = system: A. baumannii clinical isolate LAC 11; assay: Antibiotic susceptibility profile; assay type: cell-based, Acinetobacter baumannii; design: key: Resistance; Intermediate; Susceptible
Procedure, shortened: as §1

[33] = system: A. baumannii clinical isolate LAC 08; assay: Antibiotic susceptibility profile; assay type: cell-based, Acinetobacter baumannii; design: key: Resistance; Intermediate; Susceptible
Procedure, shortened: as §1

[34] = biological target: Bovine Serum Albumin (BSA) (Bos taurus, UniProt P02769); assay: SPR binding of ferulic acid to pre-immobilized BSA; settings: 10, 20, and 50 μM injected; flow rate 1 mL/h
Chain of Bovine Serum Albumin (BSA) (P02769 25-607): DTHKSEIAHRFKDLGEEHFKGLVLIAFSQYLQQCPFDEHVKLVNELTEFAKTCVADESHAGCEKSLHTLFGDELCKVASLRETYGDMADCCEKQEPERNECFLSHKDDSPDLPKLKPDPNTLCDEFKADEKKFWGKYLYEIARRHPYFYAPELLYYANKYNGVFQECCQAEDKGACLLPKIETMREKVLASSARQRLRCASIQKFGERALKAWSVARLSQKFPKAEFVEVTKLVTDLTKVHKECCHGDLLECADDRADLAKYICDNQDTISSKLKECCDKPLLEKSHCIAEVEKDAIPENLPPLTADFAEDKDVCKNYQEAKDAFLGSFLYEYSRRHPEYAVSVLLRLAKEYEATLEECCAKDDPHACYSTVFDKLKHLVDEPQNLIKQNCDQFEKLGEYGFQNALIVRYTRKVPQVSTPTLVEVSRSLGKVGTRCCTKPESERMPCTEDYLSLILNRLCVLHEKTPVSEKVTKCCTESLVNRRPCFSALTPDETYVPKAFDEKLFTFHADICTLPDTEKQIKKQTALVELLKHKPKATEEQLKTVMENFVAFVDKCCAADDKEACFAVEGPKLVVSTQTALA
Method: By injecting solutions containing different concentrations of FA and recording the resultant sensorgrams, the binding constant between FA and BSA was measured. […] Three different FA concentrations (10, 20, and 50 μM) were injected. A flow rate of 1 mL/h was used. [drawing 1] [drawing] Representative SPR sensorgrams showing binding of ferulic acid (structure on the left) onto pre-immobilized BSA molecules.

[35] = biological target: TrpS protein (tryptophanyl tRNA synthetase) (Escherichia coli, UniProt P00954); assay: Target-inhibitor interaction by SPR; assay type: binding
Text: (§3) We have examined specific binding interactions between select target proteins and their specific inhibitors. […] [drawing]

[36] = biological target: MurG protein (Escherichia coli, UniProt P17443); assay: Target-inhibitor interaction by SPR; assay type: binding
Chain of MurG protein (P17443 whole entry): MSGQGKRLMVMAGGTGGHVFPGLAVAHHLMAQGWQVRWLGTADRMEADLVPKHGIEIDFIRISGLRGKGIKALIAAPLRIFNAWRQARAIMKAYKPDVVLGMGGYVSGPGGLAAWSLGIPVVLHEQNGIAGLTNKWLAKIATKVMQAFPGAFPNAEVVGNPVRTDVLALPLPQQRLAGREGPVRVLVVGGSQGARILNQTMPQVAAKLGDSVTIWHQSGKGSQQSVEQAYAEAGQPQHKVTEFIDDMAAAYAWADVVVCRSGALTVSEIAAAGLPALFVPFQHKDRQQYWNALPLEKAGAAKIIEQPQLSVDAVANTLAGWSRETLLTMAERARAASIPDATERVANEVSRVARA
Text: as §3

| Compound | Antibiotic susceptibility [1] | Antibiotic susceptibility [2] | Antibiotic susceptibility [3] | Antibiotic susceptibility [4] | Antibiotic susceptibility [5] | Antibiotic susceptibility [6] | Antibiotic susceptibility [7] | Antibiotic susceptibility [8] | Antibiotic susceptibility [9] | Antibiotic susceptibility [10] | Antibiotic susceptibility [11] | Antibiotic susceptibility [12] | Antibiotic susceptibility [13] | Antibiotic susceptibility [14] | Antibiotic susceptibility [15] | Antibiotic susceptibility [16] | Antibiotic susceptibility [17] | Antibiotic susceptibility [18] | Antibiotic susceptibility [19] | Antibiotic susceptibility [20] | other results |
| --- | --- | --- | --- | --- | --- | --- | --- | --- | --- | --- | --- | --- | --- | --- | --- | --- | --- | --- | --- | --- | --- |
| CN(C)[C@@H]1C(O)=C(C(N)=O)C(=O)[C@@]2(O)C(O)=C3C(=O)c4c(O)cccc4[C@@](C)(O)[C@H]3C[C@@H]12 [TET, Tetracycline] | R | R | R | I | R | R | S | R | I | R | R | R | I | I | R | I | R | R | R | R | Antibiotic susceptibility [21]: R; Antibiotic susceptibility [22]: R; Antibiotic susceptibility [23]: R; Antibiotic susceptibility [24]: R; Antibiotic susceptibility [25]: I; Antibiotic susceptibility [26]: R; Antibiotic susceptibility [27]: R; Antibiotic susceptibility [28]: R; Antibiotic susceptibility [29]: R; Antibiotic susceptibility [30]: R; Antibiotic susceptibility [31]: R; Antibiotic susceptibility [32]: R; Antibiotic susceptibility [33]: R |
| NC[C@H]1O[C@H](O[C@H]2[C@H](O)[C@@H](O[C@H]3O[C@H](CO)[C@@H](O)[C@H](N)[C@H]3O)[C@H](N)C[C@@H]2N)[C@H](N)C[C@@H]1O [TOB, Tobramycin] | R | R | S | R | R | R | S | R | S | S | R | I | R | R | R | R | R | S | R | R | Antibiotic susceptibility [21]: R; Antibiotic susceptibility [22]: R; Antibiotic susceptibility [23]: R; Antibiotic susceptibility [24]: R; Antibiotic susceptibility [25]: S; Antibiotic susceptibility [26]: S; Antibiotic susceptibility [27]: R; Antibiotic susceptibility [28]: R; Antibiotic susceptibility [29]: R; Antibiotic susceptibility [30]: R; Antibiotic susceptibility [31]: S; Antibiotic susceptibility [32]: S; Antibiotic susceptibility [33]: R |
| COc1cc(/C=C/C(=O)O)ccc1O [ferulic acid] |  |  |  |  |  |  |  |  |  |  |  |  |  |  |  |  |  |  |  |  | binding onto pre-immobilized BSA (SPR sensorgrams) [34]: binding |
| CN=C1NC(=O)[C@H]([C@H](C)c2c[nH]c3ccccc23)O1 [indolmycin] |  |  |  |  |  |  |  |  |  |  |  |  |  |  |  |  |  |  |  |  | interaction with TrpS protein by SPR [35]: Specific interaction |
| Gentamicin | R | R | I | R | R | R | S | R | R | R | R | S | R | R | R | R | R | I | R | R | Antibiotic susceptibility [21]: R; Antibiotic susceptibility [22]: R; Antibiotic susceptibility [23]: R; Antibiotic susceptibility [24]: R; Antibiotic susceptibility [25]: S; Antibiotic susceptibility [26]: R; Antibiotic susceptibility [27]: R; Antibiotic susceptibility [28]: R; Antibiotic susceptibility [29]: R; Antibiotic susceptibility [30]: I; Antibiotic susceptibility [31]: R; Antibiotic susceptibility [32]: R; Antibiotic susceptibility [33]: R |
| ramoplanin |  |  |  |  |  |  |  |  |  |  |  |  |  |  |  |  |  |  |  |  | binding to MurG protein by SPR [36]: Dose-dependent specific binding |
